Results reported in ChEMBL document CHEMBL4507258 (2021).

Assays:
[1] = system: Tyrosine-protein kinase ABL1 (Homo sapiens), P00519 [F317I]; details: Compound concentration 1000.0 nM
[2] = system: Tyrosine-protein kinase ABL1 (Homo sapiens), P00519 [F317I]; details: Compound concentration 1000.0 nM; remark: listed apart in the source
[3] = system: Tyrosine-protein kinase ABL1 (Homo sapiens), P00519 [F317L]; details: Compound concentration 1000.0 nM
[4] = system: Tyrosine-protein kinase ABL1 (Homo sapiens), P00519 [Y253F]; details: Compound concentration 1000.0 nM
[5] = target: RAC-beta serine/threonine-protein kinase (Homo sapiens) (UniProt P31751); details: Compound concentration 1000.0 nM
[6] = target: RAC-gamma serine/threonine-protein kinase (Homo sapiens) (UniProt Q9Y243); details: Compound concentration 1000.0 nM
[7] = target: ALK tyrosine kinase receptor (Homo sapiens) (UniProt Q9UM73); details: Compound concentration 1000.0 nM
[8] = target: NUAK family SNF1-like kinase 1 (Homo sapiens) (UniProt O60285); details: Compound concentration 1000.0 nM
[9] = target: Calcium/calmodulin-dependent protein kinase type II subunit beta (Homo sapiens) (UniProt Q13554); details: Compound concentration 1000.0 nM
[10] = target: Cyclin-dependent kinase 11B (Homo sapiens) (UniProt P21127); details: Compound concentration 1000.0 nM
[11] = target: Cyclin-dependent kinase 19 (Homo sapiens) (UniProt Q9BWU1); details: Compound concentration 1000.0 nM
[12] = target: Cyclin-dependent kinase 8 (Homo sapiens) (UniProt P49336); details: Compound concentration 1000.0 nM
[13] = target: Epithelial discoidin domain-containing receptor 1 (Homo sapiens) (UniProt Q08345); details: Compound concentration 1000.0 nM
[14] = target: Epidermal growth factor receptor (Homo sapiens) (UniProt P00533); details: Compound concentration 1000.0 nM
[15] = system: Epidermal growth factor receptor (Homo sapiens), P00533 [L858R,T790M]; details: Compound concentration 1000.0 nM
[16] = target: Mitogen-activated protein kinase 1 (Homo sapiens) (UniProt P28482); details: Compound concentration 1000.0 nM
[17] = target: Tyrosine-protein kinase Fes/Fps (Homo sapiens) (UniProt P07332); details: Compound concentration 1000.0 nM
[18] = system: Receptor-type tyrosine-protein kinase FLT3 (Homo sapiens), P36888 [N841I]; details: Compound concentration 1000.0 nM
[19] = target: Homeodomain-interacting protein kinase 1 (Homo sapiens) (UniProt Q86Z02); details: Compound concentration 1000.0 nM
[20] = target: Tyrosine-protein kinase Lck (Homo sapiens) (UniProt P06239); details: Compound concentration 1000.0 nM
[21] = target: Mitogen-activated protein kinase kinase kinase 13 (Homo sapiens) (UniProt O43283); details: Compound concentration 1000.0 nM
[22] = target: Serine/threonine-protein kinase MARK1 (Homo sapiens) (UniProt Q9P0L2); details: Compound concentration 1000.0 nM
[23] = target: Dual specificity mitogen-activated protein kinase kinase 2 (Homo sapiens) (UniProt P36507); details: Compound concentration 1000.0 nM
[24] = target: Myosin light chain kinase, smooth muscle (Homo sapiens) (UniProt Q15746); details: Compound concentration 1000.0 nM
[25] = target: Myosin light chain kinase 2, skeletal/cardiac muscle (Homo sapiens) (UniProt Q9H1R3); details: Compound concentration 1000.0 nM
[26] = target: Serine/threonine-protein kinase 38-like (Homo sapiens) (UniProt Q9Y2H1); details: Compound concentration 1000.0 nM
[27] = target: Serine/threonine-protein kinase Nek6 (Homo sapiens) (UniProt Q9HC98); details: Compound concentration 1000.0 nM
[28] = target: Mitogen-activated protein kinase 14 (Homo sapiens) (UniProt Q16539); details: Compound concentration 1000.0 nM
[29] = target: Serine/threonine-protein kinase PAK 4 (Homo sapiens) (UniProt O96013); details: Compound concentration 1000.0 nM
[30] = target: Cyclin-dependent kinase 16 (Homo sapiens) (UniProt Q00536); details: Compound concentration 1000.0 nM
[31] = target: Protein kinase C iota type (Homo sapiens) (UniProt P41743); details: Compound concentration 1000.0 nM
[32] = target: cGMP-dependent protein kinase 1 (Homo sapiens) (UniProt Q13976); details: Compound concentration 1000.0 nM
[33] = system: Proto-oncogene tyrosine-protein kinase receptor Ret (Homo sapiens), P07949 [V804M]; details: Compound concentration 1000.0 nM
[34] = target: Rho-associated protein kinase 1 (Homo sapiens) (UniProt Q13464); details: Compound concentration 1000.0 nM
[35] = target: Ribosomal protein S6 kinase alpha-2 (Homo sapiens) (UniProt Q15349); details: Compound concentration 1000.0 nM
[36] = target: Ribosomal protein S6 kinase alpha-6 (Homo sapiens) (UniProt Q9UK32); details: Compound concentration 1000.0 nM
[37] = target: STE20-like serine/threonine-protein kinase (Homo sapiens) (UniProt Q9H2G2); details: Compound concentration 1000.0 nM
[38] = target: SRSF protein kinase 2 (Homo sapiens) (UniProt P78362); details: Compound concentration 1000.0 nM
[39] = target: TGF-beta receptor type-2 (Homo sapiens) (UniProt P37173); details: Compound concentration 1000.0 nM
[40] = target: Serine/threonine-protein kinase ULK3 (Homo sapiens) (UniProt Q6PHR2); details: Compound concentration 1000.0 nM
[41] = target: Serine/threonine-protein kinase WNK1 (Homo sapiens) (UniProt Q9H4A3); details: Compound concentration 1000.0 nM
[42] = target: Tyrosine-protein kinase Yes (Homo sapiens) (UniProt P07947); details: Compound concentration 1000.0 nM
[43] = target: Serine/threonine-protein kinase 25 (Homo sapiens) (UniProt O00506); details: Compound concentration 1000.0 nM
[44] = target: Histamine H4 receptor (Homo sapiens) (UniProt Q9H3N8); details: Compound concentration 10.0 uM
[45] = target: Beta-3 adrenergic receptor (Homo sapiens) (UniProt P13945); details: Compound concentration 10.0 uM

Sequence of RAC-gamma serine/threonine-protein kinase (Homo sapiens) (Q9Y243 whole entry): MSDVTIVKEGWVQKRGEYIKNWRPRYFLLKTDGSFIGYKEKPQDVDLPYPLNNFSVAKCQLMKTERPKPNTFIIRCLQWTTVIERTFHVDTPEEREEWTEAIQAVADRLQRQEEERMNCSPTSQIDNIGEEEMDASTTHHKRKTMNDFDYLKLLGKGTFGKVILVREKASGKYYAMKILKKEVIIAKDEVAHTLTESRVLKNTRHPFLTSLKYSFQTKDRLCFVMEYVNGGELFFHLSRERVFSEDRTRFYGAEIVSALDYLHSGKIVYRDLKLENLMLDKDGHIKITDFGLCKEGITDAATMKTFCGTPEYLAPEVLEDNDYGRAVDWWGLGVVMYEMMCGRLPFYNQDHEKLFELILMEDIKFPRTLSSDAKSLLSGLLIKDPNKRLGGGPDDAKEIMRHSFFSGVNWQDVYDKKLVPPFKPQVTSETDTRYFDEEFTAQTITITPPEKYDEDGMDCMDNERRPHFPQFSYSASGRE
Sequence of Mitogen-activated protein kinase 1 (Homo sapiens) (P28482 whole entry): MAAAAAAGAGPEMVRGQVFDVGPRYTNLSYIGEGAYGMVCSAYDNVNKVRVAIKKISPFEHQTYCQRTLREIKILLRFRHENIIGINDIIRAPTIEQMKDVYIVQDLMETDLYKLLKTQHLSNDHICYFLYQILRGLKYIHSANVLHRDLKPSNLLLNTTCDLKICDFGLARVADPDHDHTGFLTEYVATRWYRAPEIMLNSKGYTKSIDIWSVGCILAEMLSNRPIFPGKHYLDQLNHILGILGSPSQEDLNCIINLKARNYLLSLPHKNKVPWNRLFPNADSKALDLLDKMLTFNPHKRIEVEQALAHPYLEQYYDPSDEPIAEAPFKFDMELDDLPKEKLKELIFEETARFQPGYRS
Sequence of Protein kinase C iota type (Homo sapiens) (P41743 whole entry): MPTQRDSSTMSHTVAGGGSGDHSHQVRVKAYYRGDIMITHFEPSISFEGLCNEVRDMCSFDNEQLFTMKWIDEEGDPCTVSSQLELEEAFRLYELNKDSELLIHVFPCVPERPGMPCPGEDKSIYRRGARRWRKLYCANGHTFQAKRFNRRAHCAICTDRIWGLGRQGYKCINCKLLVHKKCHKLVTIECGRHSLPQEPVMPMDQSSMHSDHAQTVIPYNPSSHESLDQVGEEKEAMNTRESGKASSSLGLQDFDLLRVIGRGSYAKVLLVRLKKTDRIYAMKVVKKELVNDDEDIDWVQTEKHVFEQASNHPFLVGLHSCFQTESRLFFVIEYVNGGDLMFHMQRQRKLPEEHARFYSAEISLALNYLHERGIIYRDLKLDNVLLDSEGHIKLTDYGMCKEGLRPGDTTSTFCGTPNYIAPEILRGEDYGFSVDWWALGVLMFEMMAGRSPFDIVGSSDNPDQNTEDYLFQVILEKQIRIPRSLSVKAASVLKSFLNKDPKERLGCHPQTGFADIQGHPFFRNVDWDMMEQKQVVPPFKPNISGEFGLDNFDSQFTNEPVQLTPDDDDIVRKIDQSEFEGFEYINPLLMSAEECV
Sequence of Dual specificity mitogen-activated protein kinase kinase 2 (Homo sapiens) (P36507 whole entry): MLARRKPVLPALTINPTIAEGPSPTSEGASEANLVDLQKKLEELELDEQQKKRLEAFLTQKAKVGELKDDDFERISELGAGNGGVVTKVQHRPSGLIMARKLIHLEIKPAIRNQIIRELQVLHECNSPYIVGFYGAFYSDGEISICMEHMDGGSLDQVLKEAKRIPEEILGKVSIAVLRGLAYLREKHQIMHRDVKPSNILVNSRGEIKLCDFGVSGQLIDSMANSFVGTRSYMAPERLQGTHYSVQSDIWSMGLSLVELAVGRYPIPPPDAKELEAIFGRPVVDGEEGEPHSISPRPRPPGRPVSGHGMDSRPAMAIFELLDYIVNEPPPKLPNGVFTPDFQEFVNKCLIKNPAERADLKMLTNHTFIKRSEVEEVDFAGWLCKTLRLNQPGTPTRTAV
Sequence of Serine/threonine-protein kinase WNK1 (Homo sapiens) (Q9H4A3 whole entry, looked up): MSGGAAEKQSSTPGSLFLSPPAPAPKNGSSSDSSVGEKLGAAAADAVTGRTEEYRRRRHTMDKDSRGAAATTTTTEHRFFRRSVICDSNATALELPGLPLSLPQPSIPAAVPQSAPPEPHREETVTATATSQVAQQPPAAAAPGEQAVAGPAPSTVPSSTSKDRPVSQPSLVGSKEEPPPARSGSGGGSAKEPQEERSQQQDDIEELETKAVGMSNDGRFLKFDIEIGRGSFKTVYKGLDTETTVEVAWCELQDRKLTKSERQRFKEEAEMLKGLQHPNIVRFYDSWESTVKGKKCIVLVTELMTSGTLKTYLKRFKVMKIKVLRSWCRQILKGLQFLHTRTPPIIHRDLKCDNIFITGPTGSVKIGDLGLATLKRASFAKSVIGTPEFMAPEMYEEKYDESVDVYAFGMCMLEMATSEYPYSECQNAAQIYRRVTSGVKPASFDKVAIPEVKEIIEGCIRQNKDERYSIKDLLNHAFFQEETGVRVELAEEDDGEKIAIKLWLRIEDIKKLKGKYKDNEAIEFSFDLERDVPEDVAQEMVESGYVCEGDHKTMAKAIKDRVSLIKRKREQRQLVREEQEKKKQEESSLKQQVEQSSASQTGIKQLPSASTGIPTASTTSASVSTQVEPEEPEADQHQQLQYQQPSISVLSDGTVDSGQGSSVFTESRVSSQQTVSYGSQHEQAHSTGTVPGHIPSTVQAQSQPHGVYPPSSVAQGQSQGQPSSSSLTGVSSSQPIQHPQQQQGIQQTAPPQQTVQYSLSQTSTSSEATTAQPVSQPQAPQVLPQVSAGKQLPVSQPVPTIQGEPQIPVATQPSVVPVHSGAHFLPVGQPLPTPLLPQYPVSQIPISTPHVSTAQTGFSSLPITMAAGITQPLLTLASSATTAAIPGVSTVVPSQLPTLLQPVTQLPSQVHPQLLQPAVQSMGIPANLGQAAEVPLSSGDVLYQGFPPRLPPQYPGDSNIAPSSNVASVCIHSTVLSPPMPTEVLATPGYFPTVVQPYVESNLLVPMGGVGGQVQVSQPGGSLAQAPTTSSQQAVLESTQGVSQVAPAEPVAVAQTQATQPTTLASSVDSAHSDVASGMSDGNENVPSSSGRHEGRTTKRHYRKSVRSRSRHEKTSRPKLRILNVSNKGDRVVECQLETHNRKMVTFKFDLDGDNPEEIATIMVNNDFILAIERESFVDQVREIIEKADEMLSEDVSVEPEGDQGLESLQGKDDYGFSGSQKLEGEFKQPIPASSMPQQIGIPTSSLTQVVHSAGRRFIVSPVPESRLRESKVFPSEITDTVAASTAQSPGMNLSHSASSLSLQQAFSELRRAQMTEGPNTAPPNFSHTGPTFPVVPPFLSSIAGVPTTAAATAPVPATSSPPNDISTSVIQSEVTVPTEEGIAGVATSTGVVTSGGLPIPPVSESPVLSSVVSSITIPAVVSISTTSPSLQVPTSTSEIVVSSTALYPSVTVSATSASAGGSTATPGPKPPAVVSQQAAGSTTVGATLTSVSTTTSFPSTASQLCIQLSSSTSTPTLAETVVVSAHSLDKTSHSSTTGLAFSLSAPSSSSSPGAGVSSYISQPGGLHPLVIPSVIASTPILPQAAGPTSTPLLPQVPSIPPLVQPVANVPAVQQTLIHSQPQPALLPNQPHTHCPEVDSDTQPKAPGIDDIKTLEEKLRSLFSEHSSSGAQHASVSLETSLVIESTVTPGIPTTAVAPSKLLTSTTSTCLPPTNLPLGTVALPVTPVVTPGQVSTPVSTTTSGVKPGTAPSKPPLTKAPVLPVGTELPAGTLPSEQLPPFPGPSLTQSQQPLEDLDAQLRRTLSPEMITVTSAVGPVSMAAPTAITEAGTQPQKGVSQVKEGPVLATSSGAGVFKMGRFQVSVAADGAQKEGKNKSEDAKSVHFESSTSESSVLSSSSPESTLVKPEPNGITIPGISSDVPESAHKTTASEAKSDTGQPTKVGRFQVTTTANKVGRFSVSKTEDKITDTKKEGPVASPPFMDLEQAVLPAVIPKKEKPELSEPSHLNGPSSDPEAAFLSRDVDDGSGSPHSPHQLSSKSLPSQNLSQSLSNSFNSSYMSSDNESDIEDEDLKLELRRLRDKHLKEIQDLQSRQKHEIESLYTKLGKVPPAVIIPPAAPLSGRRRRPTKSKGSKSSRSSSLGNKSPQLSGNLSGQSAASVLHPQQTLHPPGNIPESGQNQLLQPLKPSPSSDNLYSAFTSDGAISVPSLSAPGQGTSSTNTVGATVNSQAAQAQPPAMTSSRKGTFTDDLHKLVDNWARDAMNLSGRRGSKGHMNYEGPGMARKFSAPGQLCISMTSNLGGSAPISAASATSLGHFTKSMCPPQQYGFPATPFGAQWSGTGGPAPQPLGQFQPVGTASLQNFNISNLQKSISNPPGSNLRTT
Sequence of Serine/threonine-protein kinase PAK 4 (Homo sapiens) (O96013 whole entry, looked up): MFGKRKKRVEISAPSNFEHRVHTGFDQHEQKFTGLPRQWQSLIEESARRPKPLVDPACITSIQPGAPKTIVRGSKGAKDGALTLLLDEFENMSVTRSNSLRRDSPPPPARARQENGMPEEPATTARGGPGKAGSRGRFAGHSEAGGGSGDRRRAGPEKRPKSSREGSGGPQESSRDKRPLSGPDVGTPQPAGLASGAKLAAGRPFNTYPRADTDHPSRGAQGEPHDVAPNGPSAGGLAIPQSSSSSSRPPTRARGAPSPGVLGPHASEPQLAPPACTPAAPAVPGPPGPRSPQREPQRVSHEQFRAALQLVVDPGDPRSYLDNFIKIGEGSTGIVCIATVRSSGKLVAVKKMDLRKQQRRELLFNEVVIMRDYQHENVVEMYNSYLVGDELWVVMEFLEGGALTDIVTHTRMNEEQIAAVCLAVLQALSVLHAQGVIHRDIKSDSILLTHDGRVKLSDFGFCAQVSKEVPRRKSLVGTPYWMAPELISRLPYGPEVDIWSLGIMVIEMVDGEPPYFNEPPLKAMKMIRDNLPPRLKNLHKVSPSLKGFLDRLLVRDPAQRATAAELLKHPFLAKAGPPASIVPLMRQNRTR

CCCCN(CCCC)C(=O)CN1C[C@@H](c2cc(OC)c3c(c2)OCO3)[C@H](C(=O)O)[C@H]1CC(C)(C)CCC [A-545]
inactive: residual activity [1] 100% | residual activity [2] 94.3% | residual activity [3] 93.5% | residual activity [4] 100% | residual activity [5] 100% | residual activity [6] 100% | residual activity [7] 100% | residual activity [8] 82.4% | residual activity [9] 100% | residual activity [10] 100% | residual activity [11] 99.6% | residual activity [12] 78% | residual activity [13] 100% | residual activity [14] 100% | residual activity [15] 100% | residual activity [16] 82.1% | residual activity [17] 100% | residual activity [18] 96.1% | residual activity [19] 77.3% | residual activity [20] 99.1% | residual activity [21] 100% | residual activity [22] 88.7% | residual activity [23] 98% | residual activity [24] 84.4% | residual activity [25] 100% | residual activity [26] 92.4% | residual activity [27] 98.1% | residual activity [28] 81.3% | residual activity [29] 90.2% | residual activity [30] 100% | residual activity [31] 100% | residual activity [32] 100% | residual activity [33] 82.4% | residual activity [34] 100% | residual activity [35] 84.7% | residual activity [36] 79.2% | residual activity [37] 92.5% | residual activity [38] 100% | residual activity [39] 98.6% | residual activity [40] 90.7% | residual activity [41] 96.8% | residual activity [42] 95.3% | residual activity [43] 88.1% | inhibition [44] 4.1% | inhibition [45] 28.4%

CCCCN(CCCC)C(=O)CN1C[C@H](c2cc(OC)c3c(c2)OCO3)[C@@H](C(=O)O)[C@@H]1CC(C)(C)CCC [ABT-546]
inactive: residual activity [1] 98.5% | residual activity [2] 72.5% | residual activity [3] 96.7% | residual activity [4] 86.7% | residual activity [5] 100% | residual activity [6] 100% | residual activity [7] 58.3% | residual activity [8] 100% | residual activity [9] 100% | residual activity [10] 86.4% | residual activity [11] 100% | residual activity [12] 100% | residual activity [13] 95.5% | residual activity [14] 95.1% | residual activity [15] 60.6% | residual activity [16] 100% | residual activity [17] 100% | residual activity [18] 100% | residual activity [19] 100% | residual activity [20] 100% | residual activity [21] 89.3% | residual activity [22] 96.5% | residual activity [23] 69.7% | residual activity [24] 100% | residual activity [25] 100% | residual activity [26] 100% | residual activity [27] 100% | residual activity [28] 100% | residual activity [29] 100% | residual activity [30] 74.8% | residual activity [31] 100% | residual activity [32] 100% | residual activity [33] 100% | residual activity [34] 90.4% | residual activity [35] 100% | residual activity [36] 100% | residual activity [37] 100% | residual activity [38] 100% | residual activity [39] 100% | residual activity [40] 86.7% | residual activity [41] 72.9% | residual activity [42] 100% | residual activity [43] 100% | inhibition [44] -0.606% | inhibition [45] 2.71%
